Experimental data: publication PMC5218480 (PLoS ONE, 2017)

System: MV-4-11 cells
Assay: Gene expression microarray analysis (Affymetrix PrimeView) and GSEA
Format: cell-based, human
Set-up: RFU PODN (11730768_x_at) / Fold change /veh PODN (11730768_x_at) / RFU LINC00158 (11744669_a_at) / Fold change /veh LINC00158 (11744669_a_at) / RFU DUSP10 (11751237_a_at) / Fold change /veh DUSP10 (11751237_a_at) / RFU ID3 (11757404_x_at) / Fold change /veh ID3 (11757404_x_at) / RFU PLEKHG5 (11737974_s_at) / Fold change /veh PLEKHG5 (11737974_s_at) / RFU LRRC4B (11730491_at) / Fold change /veh LRRC4B (11730491_at) / RFU GIMAP4 (11747438_a_at) / Fold change /veh GIMAP4 (11747438_a_at) / RFU KRT8 (11758183_x_at) / Fold change /veh KRT8 (11758183_x_at) / RFU CNN1 (11734310_a_at) / Fold change /veh CNN1 (11734310_a_at) / RFU VPS37D (11726825_at) / Fold change /veh VPS37D (11726825_at) / RFU C10orf10 (11716522_x_at) / Fold change /veh C10orf10 (11716522_x_at) / RFU KIR2DL2 /// KIR2DL4 /// KIR2DL5A /// KIR2DL5B /// KIR2DS1 /// KIR2DS2 /// KIR2DS3 /// KIR2DS4 /// KIR3DL3 /// KIR3DL3 /// KIR3DS1 (11738374_at) / Fold change /veh KIR2DL2 /// KIR2DL4 /// KIR2DL5A /// KIR2DL5B /// KIR2DS1 /// KIR2DS2 /// KIR2DS3 /// KIR2DS4 /// KIR3DL3 /// KIR3DL3 /// KIR3DS1 (11738374_at) / RFU C1QL1 (11718748_at) / Fold change /veh C1QL1 (11718748_at) / RFU TMPRSS4 (11747572_a_at) / Fold change /veh TMPRSS4 (11747572_a_at) / RFU HAMP (11756126_x_at) / Fold change /veh HAMP (11756126_x_at) / RFU RNFT2 (11725882_a_at) / Fold change /veh RNFT2 (11725882_a_at) / RFU NR4A2 (11747474_a_at) / Fold change /veh NR4A2 (11747474_a_at) / RFU ABCC12 (11746883_a_at) / Fold change /veh ABCC12 (11746883_a_at) / RFU TMEM136 (11760407_x_at) / Fold change /veh TMEM136 (11760407_x_at) / RFU CLDN22 /// WWC2 (11732394_at) / Fold change /veh CLDN22 /// WWC2 (11732394_at) / RFU HLA-DPB1 (11760878_x_at) / Fold change /veh HLA-DPB1 (11760878_x_at) / RFU SPINT1 (11716480_a_at) / Fold change /veh SPINT1 (11716480_a_at) / RFU GAP43 (11754022_s_at) / Fold change /veh GAP43 (11754022_s_at) / RFU A4GNT (11735810_at) / Fold change /veh A4GNT (11735810_at) / RFU PRB3 (11715151_x_at) / Fold change /veh PRB3 (11715151_x_at) / RFU TUBB4B (11761932_at) / Fold change /veh TUBB4B (11761932_at) / RFU CAPN14 (11732068_a_at) / Fold change /veh CAPN14 (11732068_a_at) / RFU TMCC2 (11721928_a_at) / Fold change /veh TMCC2 (11721928_a_at) / RFU IRGQ (11745062_a_at) / Fold change /veh IRGQ (11745062_a_at) / RFU FAM174B (11720279_a_at) / Fold change /veh FAM174B (11720279_a_at) / RFU TMPRSS4 (11748680_a_at) / Fold change /veh TMPRSS4 (11748680_a_at) / RFU FAM212B (11763350_a_at) / Fold change /veh FAM212B (11763350_a_at) / RFU PLEKHG5 (11743358_a_at) / Fold change /veh PLEKHG5 (11743358_a_at) / RFU ZSCAN30 (11745921_a_at) / Fold change /veh ZSCAN30 (11745921_a_at) / RFU CMKLR1 (11741424_a_at) / Fold change /veh CMKLR1 (11741424_a_at) / RFU LOC101060620 /// MAPK8IP1 (11723275_at) / Fold change /veh LOC101060620 /// MAPK8IP1 (11723275_at) / RFU SPTSSB (11747773_x_at) / Fold change /veh SPTSSB (11747773_x_at) / RFU PRSS12 (11739890_at) / Fold change /veh PRSS12 (11739890_at) / RFU BIN1 (11741810_x_at) / Fold change /veh BIN1 (11741810_x_at) / RFU WNT11 (11732464_a_at) / Fold change /veh WNT11 (11732464_a_at) / RFU C10orf10 (11716521_a_at) / Fold change /veh C10orf10 (11716521_a_at) / RFU C5orf56 (11738089_at) / Fold change /veh C5orf56 (11738089_at) / RFU CYB561 (11721691_x_at) / Fold change /veh CYB561 (11721691_x_at) / RFU ANKRD19P (11752326_a_at) / Fold change /veh ANKRD19P (11752326_a_at) / RFU OR2T12 /// OR2T33 /// OR2T8 (11738714_s_at) / Fold change /veh OR2T12 /// OR2T33 /// OR2T8 (11738714_s_at) / RFU VCAN (11748164_a_at) / Fold change /veh VCAN (11748164_a_at) / RFU JSRP1 (11732532_at) / Fold change /veh JSRP1 (11732532_at) / RFU KRTAP10-11 (11738290_x_at) / Fold change /veh KRTAP10-11 (11738290_x_at) / RFU MYO3A (11730013_a_at) / Fold change /veh MYO3A (11730013_a_at) / RFU EBF3 (11725865_a_at) / Fold change /veh EBF3 (11725865_a_at) / RFU CAMK2N1 (11719241_x_at) / Fold change /veh CAMK2N1 (11719241_x_at) / RFU C5orf56 (11738088_a_at) / Fold change /veh C5orf56 (11738088_a_at) / RFU OLFML3 (11715873_a_at) / Fold change /veh OLFML3 (11715873_a_at) / RFU LOC100653217 /// NTM (11731650_a_at) / Fold change /veh LOC100653217 /// NTM (11731650_a_at) / RFU MAPK11 (11762145_a_at) / Fold change /veh MAPK11 (11762145_a_at) / RFU FIZ1 (11724087_x_at) / Fold change /veh FIZ1 (11724087_x_at) / RFU OASL (11726364_x_at) / Fold change /veh OASL (11726364_x_at) / RFU SOX15 (11748057_x_at) / Fold change /veh SOX15 (11748057_x_at) / RFU CD79A (11719716_a_at) / Fold change /veh CD79A (11719716_a_at) / RFU HIST1H1D (11736915_at) / Fold change /veh HIST1H1D (11736915_at) / RFU CASKIN2 (11723855_a_at) / Fold change /veh CASKIN2 (11723855_a_at) / RFU LOC730098 (11760151_x_at) / Fold change /veh LOC730098 (11760151_x_at) / RFU OR4N2 (11742367_at) / Fold change /veh OR4N2 (11742367_at) / RFU PRRT2 (11749266_a_at) / Fold change /veh PRRT2 (11749266_a_at) / RFU SNX32 (11753110_a_at) / Fold change /veh SNX32 (11753110_a_at) / RFU CDHR5 (11726645_a_at) / Fold change /veh CDHR5 (11726645_a_at) / RFU RCAN1 (11760418_a_at) / Fold change /veh RCAN1 (11760418_a_at) / RFU FAM167A (11723789_a_at) / Fold change /veh FAM167A (11723789_a_at) / RFU FAM26E (11764081_at) / Fold change /veh FAM26E (11764081_at) / RFU ISYNA1 (11749810_s_at) / Fold change /veh ISYNA1 (11749810_s_at) / RFU ACY1 (11761880_at) / Fold change /veh ACY1 (11761880_at) / RFU 11764098_at / Fold change /veh 11764098_at / RFU SAMD14 (11745864_x_at) / Fold change /veh SAMD14 (11745864_x_at) / RFU NPB (11741838_a_at) / Fold change /veh NPB (11741838_a_at) / RFU TMPRSS6 (11731388_a_at) / Fold change /veh TMPRSS6 (11731388_a_at) / RFU KRTAP10-2 (11738614_at) / Fold change /veh KRTAP10-2 (11738614_at) / RFU ARHGAP8 /// PRR5-ARHGAP8 (11727945_x_at) / Fold change /veh ARHGAP8 /// PRR5-ARHGAP8 (11727945_x_at) / RFU KRTAP5-7 /// NADSYN1 (11734609_at) / Fold change /veh KRTAP5-7 /// NADSYN1 (11734609_at) / RFU RASL12 (11751679_a_at) / Fold change /veh RASL12 (11751679_a_at) / RFU CDKN2B (11736163_a_at) / Fold change /veh CDKN2B (11736163_a_at) / RFU PRF1 (11729649_at) / Fold change /veh PRF1 (11729649_at) / RFU, ZNF638 /// ZNF638-IT1 / Fold change vs veh, ZNF638 /// ZNF638-IT1 / RFU, PANK3 / Fold change vs veh, PANK3 / RFU, SH3YL1 / Fold change vs veh, SH3YL1 / RFU, ZEB2 / Fold change vs veh, ZEB2 / RFU, NRIP1 / Fold change vs veh, NRIP1 / RFU, PTTG1IP / Fold change vs veh, PTTG1IP / RFU, CAPN2 / Fold change vs veh, CAPN2 / RFU, MED14 / Fold change vs veh, MED14 / RFU, SNORA58 / Fold change vs veh, SNORA58 / RFU, C1orf63 / Fold change vs veh, C1orf63 / RFU, LRRFIP1 / Fold change vs veh, LRRFIP1 / RFU, NDUFAF7 / Fold change vs veh, NDUFAF7 / RFU, SLC12A2 / Fold change vs veh, SLC12A2 / RFU, IBTK / Fold change vs veh, IBTK / RFU, ESF1 / Fold change vs veh, ESF1 / Fold change vs veh, TMEM50B / RFU, TAOK1 / Fold change vs veh, TAOK1 / RFU, ACBD3 / Fold change vs veh, ACBD3 / RFU, TMA16 / Fold change vs veh, TMA16 / RFU, RWDD3 / Fold change vs veh, RWDD3 / RFU, BCAT1 / Fold change vs veh, BCAT1 / RFU, EDEM3 / Fold change vs veh, EDEM3 / RFU, TMEM33 / Fold change vs veh, TMEM33 / RFU, WDR75 / Fold change vs veh, WDR75 / RFU, AHCTF1 / Fold change vs veh, AHCTF1 / RFU, TFRC / Fold change vs veh, TFRC / RFU, ZDHHC17 / Fold change vs veh, ZDHHC17 / RFU, NOM1 / Fold change vs veh, NOM1 / RFU, ARL8B / Fold change vs veh, ARL8B / RFU, ZBTB11 / Fold change vs veh, ZBTB11 / RFU, TAMM41 / Fold change vs veh, TAMM41 / RFU, KIAA1704 /// LOC100996395 / Fold change vs veh, KIAA1704 /// LOC100996395 / RFU, ING1 / Fold change vs veh, ING1 / RFU, TRMT61B / Fold change vs veh, TRMT61B / RFU, FUBP3 / Fold change vs veh, FUBP3 / RFU, TP53 / Fold change vs veh, TP53 / RFU, TNKS2 / Fold change vs veh, TNKS2 / RFU, ZFP14 / Fold change vs veh, ZFP14 / RFU, ACTR2 / Fold change vs veh, ACTR2 / RFU, PPP3R1 / Fold change vs veh, PPP3R1 / RFU, PIK3R1 / Fold change vs veh, PIK3R1 / RFU, HNRNPA1 / Fold change vs veh, HNRNPA1 / RFU, RNF170 / Fold change vs veh, RNF170 / RFU, ZNF28 / Fold change vs veh, ZNF28 / RFU, RNGTT / Fold change vs veh, RNGTT / RFU, OGT / Fold change vs veh, OGT / RFU, BRD1 / Fold change vs veh, BRD1 / RFU, MARS / Fold change vs veh, MARS / RFU, ZNF655 / Fold change vs veh, ZNF655 / RFU, FAHD1 / Fold change vs veh, FAHD1 / RFU, BDP1 / Fold change vs veh, BDP1 / RFU, LRRCC1 / Fold change vs veh, LRRCC1 / RFU, ARID1A / Fold change vs veh, ARID1A / RFU, ZNF146 / Fold change vs veh, ZNF146 / RFU, ZNF330 / Fold change vs veh, ZNF330 / RFU, GPN3 / Fold change vs veh, GPN3 / RFU, C9orf123 / Fold change vs veh, C9orf123 / RFU, N4BP2L2 / Fold change vs veh, N4BP2L2 / RFU, ARFIP1 / Fold change vs veh, ARFIP1 / RFU, FAM179B / Fold change vs veh, FAM179B / RFU, BCL10 / Fold change vs veh, BCL10 / RFU, UHRF1BP1L / Fold change vs veh, UHRF1BP1L / RFU, BET1 / Fold change vs veh, BET1 / RFU, CNOT2 / Fold change vs veh, CNOT2 / RFU, ZNF268 / Fold change vs veh, ZNF268 / Fold change vs veh, ZNF507 / RFU, DGCR2 / Fold change vs veh, DGCR2 / RFU, WDSUB1 / Fold change vs veh, WDSUB1 / Fold change vs veh, HSP90B1 /// MIR3652 / RFU, ADSS / Fold change vs veh, ADSS / RFU, GK / Fold change vs veh, GK / RFU, ZNF148 / Fold change vs veh, ZNF148 / RFU, TAF9 / Fold change vs veh, TAF9 / RFU, SLC1A5 / Fold change vs veh, SLC1A5 / RFU, SLMO2 / Fold change vs veh, SLMO2 / RFU, ABCC4 / Fold change vs veh, ABCC4 / RFU, LOC101060439 /// RAP1B / Fold change vs veh, LOC101060439 /// RAP1B / RFU, RFX7 / Fold change vs veh, RFX7 / RFU, GTPBP10 / Fold change vs veh, GTPBP10 / RFU, CNEP1R1 / Fold change vs veh, CNEP1R1 / RFU, BIVM-ERCC5 /// ERCC5 / Fold change vs veh, BIVM-ERCC5 /// ERCC5 / RFU, ILF3 / Fold change vs veh, ILF3 / RFU 11762660_at / Fold change /veh 11762660_at / RFU VCAN (11757783_s_at) / Fold change /veh VCAN (11757783_s_at) / RFU DDX43 (11728927_at) / Fold change /veh DDX43 (11728927_at) / RFU KRT8 (11758188_x_at) / Fold change /veh KRT8 (11758188_x_at) / RFU NKD1 (11759106_at) / Fold change /veh NKD1 (11759106_at) / RFU SRD5A1 (11742802_a_at) / Fold change /veh SRD5A1 (11742802_a_at) / RFU TPSAB1 /// TPSB2 (11721975_s_at) / Fold change /veh TPSAB1 /// TPSB2 (11721975_s_at) / RFU GSTM3 (11746129_a_at) / Fold change /veh GSTM3 (11746129_a_at) / RFU IL23R (11737362_x_at) / Fold change /veh IL23R (11737362_x_at) / RFU TMEM51 (11727254_a_at) / Fold change /veh TMEM51 (11727254_a_at) / RFU PIWIL2 (11732686_x_at) / Fold change /veh PIWIL2 (11732686_x_at) / RFU ORM1 (11744905_x_at) / Fold change /veh ORM1 (11744905_x_at) / RFU CCDC152 (11743942_at) / Fold change /veh CCDC152 (11743942_at) / RFU ECM1 (11717891_a_at) / Fold change /veh ECM1 (11717891_a_at) / RFU IL23R (11748794_a_at) / Fold change /veh IL23R (11748794_a_at) / RFU TNFAIP8L3 (11732012_x_at) / Fold change /veh TNFAIP8L3 (11732012_x_at) / RFU MBOAT4 (11741988_at) / Fold change /veh MBOAT4 (11741988_at) / RFU 11764193_at / Fold change /veh 11764193_at / RFU TMEM53 (11763286_at) / Fold change /veh TMEM53 (11763286_at) / RFU MAGEB2 (11727129_at) / Fold change /veh MAGEB2 (11727129_at) / RFU TMEM200A (11744735_a_at) / Fold change /veh TMEM200A (11744735_a_at) / RFU CCDC152 (11751479_a_at) / Fold change /veh CCDC152 (11751479_a_at) / RFU FAM211A (11726209_a_at) / Fold change /veh FAM211A (11726209_a_at) / RFU RGS16 (11746705_a_at) / Fold change /veh RGS16 (11746705_a_at) / RFU VCAN (11755009_s_at) / Fold change /veh VCAN (11755009_s_at) / RFU RHOB (11743442_s_at) / Fold change /veh RHOB (11743442_s_at) / RFU RGS16 (11720943_a_at) / Fold change /veh RGS16 (11720943_a_at) / RFU RGS16 (11720944_at) / Fold change /veh RGS16 (11720944_at) / RFU, VPS4B / Fold change vs veh, VPS4B / RFU, CREB1 / Fold change vs veh, CREB1 / RFU, DNAJC13 / Fold change vs veh, DNAJC13 / RFU, GNAQ / Fold change vs veh, GNAQ / RFU, CDK5R1 / Fold change vs veh, CDK5R1 / RFU, ZRANB3 / Fold change vs veh, ZRANB3 / RFU, CUL4A / Fold change vs veh, CUL4A / RFU, CCNY / Fold change vs veh, CCNY / RFU, UFL1 / Fold change vs veh, UFL1 / RFU, COG3 / Fold change vs veh, COG3 / RFU, DIAPH2 / Fold change vs veh, DIAPH2 / RFU, SKA2 / Fold change vs veh, SKA2 / RFU, AFF3 / Fold change vs veh, AFF3 / RFU, LMF1 / Fold change vs veh, LMF1 / RFU, IPO11 / Fold change vs veh, IPO11 / RFU, DFFB / Fold change vs veh, DFFB / RFU, FOXP1 / Fold change vs veh, FOXP1 / RFU, CARD8 / Fold change vs veh, CARD8 / RFU, STRN3 / Fold change vs veh, STRN3 / RFU, ADK / Fold change vs veh, ADK / RFU, RASSF2 / Fold change vs veh, RASSF2 / RFU, WIPF1 / Fold change vs veh, WIPF1 / RFU, LARP1B / Fold change vs veh, LARP1B / RFU, RASA1 / Fold change vs veh, RASA1 / RFU, RB1 / Fold change vs veh, RB1 / RFU, PPFIA1 / Fold change vs veh, PPFIA1 / RFU, MAT2A / Fold change vs veh, MAT2A / RFU, CCT5 / Fold change vs veh, CCT5 / RFU, WDR92 / Fold change vs veh, WDR92 / RFU, CUX1 / Fold change vs veh, CUX1 / RFU, TTC7A / Fold change vs veh, TTC7A / RFU, TMEM135 / Fold change vs veh, TMEM135 / RFU, DEPTOR / Fold change vs veh, DEPTOR / RFU, CPM / Fold change vs veh, CPM / RFU, DNAJB6 / Fold change vs veh, DNAJB6 / RFU, CACNA2D3 / Fold change vs veh, CACNA2D3 / RFU, DTX4 / Fold change vs veh, DTX4 / RFU, TFCP2 / Fold change vs veh, TFCP2 / RFU, GMCL1 /// GMCL1P1 / Fold change vs veh, GMCL1 /// GMCL1P1 / RFU, AEBP2 / Fold change vs veh, AEBP2 / RFU, SNHG1 /// SNORD22 /// SNORD25 /// SNORD26 /// SNORD27 /// SNORD28 /// SNORD29 /// SNORD31 / Fold change vs veh, SNHG1 /// SNORD22 /// SNORD25 /// SNORD26 /// SNORD27 /// SNORD28 /// SNORD29 /// SNORD31 / Fold change (Aza/veh), C12orf56 (ProbeSet 11735607_a_at) / Fold change (ACY-1035/veh), C12orf56 (ProbeSet 11735607_a_at) / Fold change (Aza/veh), FGFR1OP (ProbeSet 11751329_s_at) / Fold change (ACY-1035/veh), FGFR1OP (ProbeSet 11751329_s_at) / Fold change (Aza/veh), VPS36 (ProbeSet 11739960_a_at) / Fold change (ACY-1035/veh), VPS36 (ProbeSet 11739960_a_at) / RFU SYPL1 (11715823_x_at) / Fold change /veh SYPL1 (11715823_x_at) / RFU IGFBP7 (11715501_s_at) / Fold change /veh IGFBP7 (11715501_s_at) / RFU REEP3 (11722064_at) / Fold change /veh REEP3 (11722064_at) / RFU IGLL1 (11728026_x_at) / Fold change /veh IGLL1 (11728026_x_at): dose or concentration left out as unconfirmed
Conditions: MV-4-11 cells, 48 hours

SMILES: Nc1ncn([C@@H]2O[C@H](CO)[C@@H](O)[C@H]2O)c(=O)n1 [azacitidine]
- Fold change /veh LINC00158 (11744669_a_at): 1.04
